Converted amounts (≈) assume the structure as drawn. Like-named read-outs stand apart in the source and are kept apart here. Where a SMILES comes first, the peptide text is derived from it. [ ]: non-standard residue; d: D form. The star is where a group is joined. Decanoyl = CCCCCCCCCC(=O)*; Heptanoyl = CCCCCCC(=O)*; Octanoyl = CCCCCCCC(=O)*; Dab = NCC[C@H](N)C(=O)O
Key:
E. faecium ATCC 19434 = format: cell-based, Enterococcus faecium
Source text: (§1) The surviving cells from each antimicrobial concentration with no visible growth were enumerated by plating on tryptic soy agar (TSA). MBC was defined as the lowest concentration of the antimicrobial agent that led to at least a 99.9% reduction in the number of viable bacterial cells relative to the initial inoculum. There were three independent experiments with one replicate in each experiment.

S. aureus ATCC 43300 = format: cell-based, Staphylococcus aureus
Source text: as §1

S. aureus ATCC 29213 [1] = format: cell-based, Staphylococcus aureus
Source text: as §1

[2] = system: Klebsiella pneumoniae ATCC 13883; format: cell-based; details: ATCC 13883
A. baumannii ATCC 19606 = format: cell-based, Acinetobacter baumannii
Source text: as §1

[3] = system: methicillin-resistant S. aureus ATCC 43300; format: cell-based, Staphylococcus aureus; details: ATCC 43300
Experimental: (§3) The minimum inhibitory concentration (MIC) of paenipeptin analogues was determined using the broth microdilution method (Wirker, M. A. Methods for Dilution Antimicrobial Susceptibility Tests for Bacteria that Grow Aerobically: Approved Standard M07-A8; Clinical and Laboratory Standards Institute, Wayne, Pa., 2009). Seven reference strains (Acinetobacter baumannii ATCC 19606, Escherichia coli ATCC 25922, Klebsiella pneumoniae ATCC 13883, Pseudomonas aeruginosa ATCC 27853, Enterococcus faecium ATCC 19434, Staphylococcus aureus ATCC 29213 and methicillin-resistant S. aureus ATCC 43300) were subjected to MIC testing.
(§4) Paenipeptin analogues were two-fold diluted in tryptic soy broth (TSB; Becton Dickinson) and mixed with an equal volume of bacterial suspensions in TSB containing approximately 1.5×10^5 colony-forming units (CFU)/mL in a clear UV-sterilized 96-well microtiter plate (NBS, Corning Inc., Corning, N.Y.). […] The microtiter plate was incubated at 37° C. for 18-20 h.

[4] = system: Escherichia coli ATCC 25922; format: cell-based; details: ATCC 25922
[5] = system: Pseudomonas aeruginosa ATCC 27853; format: cell-based; details: ATCC 27853
Experimental: as §3, §4

rabbit red blood cells = experiment: Hemolytic activity; format: cell-based; details: for Hemolysis: relative to Triton X-100
Experimental: Hemolytic activity was evaluated using defibrinated rabbit blood in a 96-well plate as described previously. A nonionic surfactant Triton X-100, which is capable of lysing red blood cells (RBCs), was used at 0.1% as a positive control. Briefly, rabbit blood (Hardy Diagnostics, Santa Maria, Calif.) was diluted with phosphate buffered saline (PBS; pH 7.2) at a 1:19 ratio (v/v) and free hemoglobin was removed by washing RBCs and centrifugation four times at 1,000×g at 4° C. for 5 min. Aliquots (50 μL) of washed RBCs were incubated with 150 μL two-fold dilutions of paenipeptin analogues at final concentrations of 16-128 μg/mL at 37° C. for 30 min in a microtiter plate (NBS, Corning Inc.). After incubation, treated RBCs were gently mixed by repeated pipetting. Aliquots (20 μL) of the cell suspension were mixed with 200 μL PBS in a new 96-well plate and centrifuged at 2,204×g for 10 min. The supernatant was transferred to a new 96-well plate for absorbance measurement at 415 nm using a Cell Imaging Multimode Reader (Cytation 3, BioTek; Winooski, Vt.). The percent hemolysis observed after exposure to each paenipeptin analogue was calculated relative to Triton X-100.

[6] = system: methicillin-resistant S. aureus strain LAC biofilm; experiment: Established catheter-associated biofilm in vitro; format: cell-based, Staphylococcus aureus; details: data not shown
Experimental: Each well was inoculated with the methicillin-resistant S. aureus strain LAC or P. aeruginosa ATCC 27853 to an OD600nm of 0.05. […] After 72 h of exposure, catheters were rinsed with PBS, followed by sonication (for S. aureus) or vigorous vortexing (for P. aeruginosa) to quantitatively recover adherent bacteria. Viable S. aureus or P. aeruginosa cells were enumerated by plating serial dilutions on TSA.

[7] = system: Staphylococcus aureus ATCC 29213; format: cell-based; details: ATCC 29213
P. aeruginosa ATCC 27853 = format: cell-based, Pseudomonas aeruginosa
Source text: as §1

K. pneumoniae ATCC 13883 = format: cell-based, Klebsiella pneumoniae
Source text: as §1

[8] = system: Acinetobacter baumannii ATCC 19606; format: cell-based; details: ATCC 19606
Experimental: as §3, §4

[9] = system: A. baumannii FDA-CDC AR 0037; experiment: microbe, parasite or virus in culture; details: Acinetobacter baumannii, read-out: MIC alone
[10] = system: K. pneumoniae FDA-CDC AR 0080; experiment: microbe, parasite or virus in culture; details: Klebsiella pneumoniae, read-out: MIC alone
[11] = system: K. pneumoniae FDA-CDC AR 0068; experiment: microbe, parasite or virus in culture; details: Klebsiella pneumoniae, read-out: MIC alone
[12] = system: A. baumannii FDA-CDC AR 0070; experiment: microbe, parasite or virus in culture; details: Acinetobacter baumannii, read-out: MIC alone
[13] = system: A. baumannii FDA-CDC AR 0083; experiment: microbe, parasite or virus in culture; details: Acinetobacter baumannii, read-out: MIC alone
[14] = system: K. pneumoniae FDA-CDC AR 0044; experiment: microbe, parasite or virus in culture; details: Klebsiella pneumoniae, read-out: MIC alone
[15] = system: Klebsiella pneumoniae ATCC 13883; experiment: MIC of antibiotics with or without paenipeptin analogues (potentiation); format: cell-based; details: Klebsiella pneumoniae, ATCC13883
Source text: (§2) Gram-negative bacteria, including Acinetobacter and Klebsiella, are intrinsically resistant to the hydrophobic antibiotic rifampicin.

[16] = system: Acinetobacter baumannii ATCC 19606; experiment: as above; format: cell-based; details: Acinetobacter baumannii, ATCC19606; A. baumannii ATCC 19606; rifampicin alone; read-out: MIC of rifampicin at 0 μg/mL of paenipeptin analogues
Source text: as §2

[17] = system: A. baumannii FDA-CDC AR 0052; experiment: microbe, parasite or virus in culture; details: Acinetobacter baumannii, read-out: MIC alone
[18] = system: K. pneumoniae FDA-CDC AR 0034; experiment: microbe, parasite or virus in culture; details: Klebsiella pneumoniae, read-out: MIC alone
[19] = system: K. pneumoniae FDA-CDC AR 0097; experiment: microbe, parasite or virus in culture; details: Klebsiella pneumoniae, read-out: MIC alone
[20] = system: A. baumannii FDA-CDC AR 0063; experiment: microbe, parasite or virus in culture; details: Acinetobacter baumannii, read-out: MIC alone
[21] = system: A. baumannii FDA-CDC AR 0063; experiment: Time-kill kinetics in 95% human serum, alone and combined; format: cell-based, Acinetobacter baumannii; details: A. baumannii AR 0063, 24 h
Experimental: Bacterial viable counts were determined at 0, 2, 4, 6, and 24 h after antimicrobial treatment. Bacterial surviving counts at 24 h endpoints were subjected to analysis of variance (ANOVA) followed by Tukey's honest significant difference (HSD) tests using SPSS Statistics (version 24; SPSS, Inc., Chicago, Ill., USA).
To further test the therapeutic potential of paenipeptin analogues, the time-kill kinetics assays of paenipeptins alone or in combination with other antibiotics were performed in 95% human serum in vitro. Without antimicrobial treatment, the population of A. baumannii FDA-CDC AR 0063 increased from 5.8 log to 9.3 log within 24 h. […] (FIG. 7A).

E. coli ATCC 25922 = format: cell-based, Escherichia coli
Source text: as §1

S. aureus ATCC 29213 [22] = format: cell-based, Staphylococcus aureus; details: ATCC 29213
Experimental: The impact of human serum on the antibacterial activity of selected paenipeptin analogues was determined using a procedure similar to that used for MIC determination as described above except that the microbiological medium was replaced by human serum (MP Biomedicals, Solon, Ohio). Paenipeptin analogues were two-fold diluted in 100% human serum and mixed with an equal volume of 90% serum containing approximately 1.5×10^5 CFU/mL of E. coli ATCC 25922 or S. aureus ATCC 29213. The final paenipeptin concentrations ranged from 0.5-64 μg/mL in 95% serum. The MIC in the presence of serum was then tested as described above.

## CCCCCCCCCC(=O)N[C@@H](CCN)C(=O)N[C@H](C(=O)N[C@@H](CCN)C(=O)N[C@H](Cc1ccccc1)C(=O)N[C@@H](CC(C)C)C(=O)N[C@@H](CCN)C(=O)N[C@@H](C(=O)N[C@@H](CC(C)C)C(=O)N[C@@H](CO)C(N)=O)C(C)C)[C@@H](C)CC [Analogue 12] (Decanoyl-[Dab]I[Dab][dF]L[Dab][dV]LS-NH2)
E. faecium ATCC 19434
  MBC: 2 to 4 µg/mL
S. aureus ATCC 43300
  MBC: 2 to 4 µg/mL
S. aureus ATCC 29213 [1]
  MBC: 4 to 8 µg/mL
[2]
  MIC: 2 to 4 µg/mL
A. baumannii ATCC 19606
  MBC: 0.5 to 2 µg/mL
[3]
  MIC: 2 to 4 µg/mL
[4]
  MIC: 2 to 8 µg/mL
  Minimum inhibitory concentration: 2 to 8 µg/mL
[5]
  MIC: 1 to 2 µg/mL
Rabbit red blood cells; 16 μg/mL
  Hemolysis: 14.3 ± 4.25%
Rabbit red blood cells; 32 μg/mL
  Hemolysis: 37.2 ± 8.62%
Rabbit red blood cells; 64 μg/mL
  Hemolysis: 73.4 ± 7.59%
Rabbit red blood cells; 128 μg/mL
  hemolytic activity (in words): strong hemolytic activity
  Hemolysis: 93.9 ± 7.57%
[6]
  activity against established catheter-associated biofilm (in words): no activity
[7]
  MIC: 2 to 4 µg/mL
  Minimum inhibitory concentration: 2 to 4 µg/mL
P. aeruginosa ATCC 27853
  MBC: 2 to 4 µg/mL
K. pneumoniae ATCC 13883
  MBC: 4 to 8 µg/mL
[8]
  MIC: 0.5 to 2 µg/mL

## CO[C@H]1/C=C/O[C@@]2(C)Oc3c(C)c(O)c4c(O)c(c(/C=N/N5CCN(C)CC5)c(O)c4c3C2=O)NC(=O)/C(C)=C\C=C\[C@H](C)[C@H](O)[C@@H](C)[C@@H](O)[C@@H](C)[C@H](OC(C)=O)[C@@H]1C [rifampicin]
[9]
  MIC: 2 µg/mL (≈ 2.43 µM)
[10]
  MIC: > 32 µg/mL
[11]
  MIC: 32 µg/mL (≈ 38.9 µM)
[12]
  MIC: 1 µg/mL (≈ 1.22 µM)
[13]
  MIC: 32 µg/mL (≈ 38.9 µM)
[14]
  MIC: 32 µg/mL (≈ 38.9 µM)
[15]; K. pneumoniae ATCC 13883, rifampicin alone, read-out: MIC of rifampicin at 0 μg/mL of paenipeptin analogues
  MIC: 16 µg/mL
[15]; K. pneumoniae, read-out: MIC of rifampicin alone
  MIC: 19.4 µM
[16]
  MIC: 16 µg/mL
[17]
  MIC: 1 µg/mL (≈ 1.22 µM)
[18]
  MIC: 16 µg/mL (≈ 19.4 µM)
[19]
  MIC: 32 µg/mL (≈ 38.9 µM)
[20]
  MIC: 1 µg/mL (≈ 1.22 µM)
[21]
  log reduction of cell population, single agent at 4 μg/ml: 1.4 log

## CCCCCCC(=O)N[C@@H](CCN)C(=O)N[C@@H](Cc1ccccc1)C(=O)N[C@@H](CCN)C(=O)N[C@H](Cc1ccccc1)C(=O)N[C@@H](CC(C)C)C(=O)N[C@@H](CCN)C(=O)N[C@H](CC(C)C)C(=O)N[C@@H](Cc1ccccc1)C(=O)N[C@@H](CO)C(N)=O [Analogue 7] (Heptanoyl-[Dab]F[Dab][dF]L[Dab][dL]FS-NH2)
S. aureus ATCC 43300
  MBC: 8 to 16 µg/mL
S. aureus ATCC 29213 [1]
  MBC: 8 to 32 µg/mL
E. coli ATCC 25922
  MBC: 8 to 16 µg/mL
[4]
  MIC: 0.5 to 2 µg/mL
  Minimum inhibitory concentration: 0.5 to 2 µg/mL
S. aureus ATCC 29213 [22]
  Minimum inhibitory concentration: 32 to 64 µg/mL
[5]
  MIC: 1 to 2 µg/mL
Rabbit red blood cells; 32 μg/mL
  Hemolysis: 5.10 ± 1.26%
Rabbit red blood cells; 64 μg/mL
  Hemolysis: 18.8 ± 2.44%
Rabbit red blood cells; 128 μg/mL
  Hemolysis: 64.2 ± 3.28%
[8]
  MIC: 2 to 4 µg/mL

## CCCCCCCC(=O)N[C@@H](CCN)C(=O)N[C@H](C(=O)N[C@@H](CCN)C(=O)N[C@H](Cc1ccccc1)C(=O)N[C@@H](CC(C)C)C(=O)N[C@@H](CCN)C(=O)N[C@@H](C(=O)N[C@@H](CC(C)C)C(=O)N[C@@H](CO)C(N)=O)C(C)C)[C@@H](C)CC [Analogue 8, C8-Pat] (Octanoyl-[Dab]I[Dab][dF]L[Dab][dV]LS-NH2)
E. faecium ATCC 19434
  MBC: 16 to 32 µg/mL
S. aureus ATCC 43300
  MBC: 8 to 32 µg/mL
[2]
  MIC: 8 to 16 µg/mL
A. baumannii ATCC 19606
  MBC: 16 to 32 µg/mL
[3]
  MIC: 8 to 16 µg/mL
[4]
  MIC: 2 to 4 µg/mL
  Minimum inhibitory concentration: 2 to 4 µg/mL
S. aureus ATCC 29213 [22]
  Minimum inhibitory concentration: 16 to 32 µg/mL
Rabbit red blood cells; 16 μg/mL
  Hemolysis: 0.93 ± 0.45%
Rabbit red blood cells; 32 μg/mL
  Hemolysis: 1.91 ± 0.25%
Rabbit red blood cells; 64 μg/mL
  Hemolysis: 6.18 ± 2.48%
Rabbit red blood cells; 128 μg/mL
  Hemolysis: 25.3 ± 4.15%
[7]
  MIC: 8 to 16 µg/mL
  Minimum inhibitory concentration: 8 to 16 µg/mL
P. aeruginosa ATCC 27853
  MBC: 8 to 16 µg/mL
K. pneumoniae ATCC 13883
  MBC: 8 to 16 µg/mL
